Test systems include SF-268 CNS; DMS 114 small cell lung; OVCAR-3 ovarian; CCRF-CEM leukemia; EKVX NSCLC; KM20L2 colon; MCF7 breast; MDA-MB-231 breast; HS 578T breast; PC-3 prostate.
What all share (assay): growth of human tumour cells (NCI), 48 h

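Cultured in 96-well plates, cells were exposed to test compound for 48 hours across five concentrations. GI50 = concentration required for 50% inhibition of growth. Definition used: TGI = concentration required for complete inhibition of growth.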

Take `COc1ccc(Nc2nc3ccc(C(F)(F)F)cc3nc2-c2ccccc2)cc1OC`: the TGI was above 100 µM with SF-268 CNS; above 100 µM with DMS 114 small cell lung; above 100 µM in the assay on OVCAR-3 ovarian; above 100 µM in the assay on CCRF-CEM leukemia; 80.3 µM with EKVX NSCLC.
Regarding `COc1ccc(OC)c(/C(C)=N/NC(N)=S)c1`, the TGI in the assay on KM20L2 colon, in the assay on SF-268 CNS, in the assay with DMS 114 small cell lung, in the assay on OVCAR-3 ovarian, with CCRF-CEM leukemia and in the assay on EKVX NSCLC was above 100 µM in each case.
As for `COc1ccc2c(c1)N1CCc3cc(OC)c(OC)cc3C1C2` (configuration not stated), the TGI in the assay with KM20L2 colon, in the assay with SF-268 CNS, in the assay with DMS 114 small cell lung, in the assay on CCRF-CEM leukemia and in the assay on EKVX NSCLC was above 100 µM in each case.
With `Cc1cc2c(ccc3c(C)cc(=O)oc32)o1`, the TGI in the assay on KM20L2 colon, in the assay with SF-268 CNS, in the assay with DMS 114 small cell lung, in the assay with OVCAR-3 ovarian, in the assay with CCRF-CEM leukemia and in the assay on EKVX NSCLC was above 100 µM each time.
As for `CN(C)CC(C)(C)C(=O)/C=C/c1ccc(/C=C/C(=O)C(C)(C)CN(C)C)cc1`, the TGI with KM20L2 colon is 2.35 µM; in the assay with SF-268 CNS, 2.86 µM; in the assay on DMS 114 small cell lung, 2.76 µM; with OVCAR-3 ovarian, 2.59 µM; in the assay on CCRF-CEM leukemia it was 3.78 µM; in the assay with EKVX NSCLC it was 3.26 µM.
`COCCCNC(=O)C1C(=O)N(CCCOC)C(=O)/C1=N\N` (configuration not stated): the TGI in the assay with KM20L2 colon, with SF-268 CNS, in the assay on DMS 114 small cell lung, in the assay with OVCAR-3 ovarian, in the assay on CCRF-CEM leukemia and in the assay on EKVX NSCLC was above 100 µM throughout.
As for `C[N-]c1nnnn1C.[Au+].c1ccc([PH+](c2ccccc2)c2ccccc2)cc1`, the GI50 in the assay on KM20L2 colon is 4.05 µM; with SF-268 CNS, 3.5 µM; with DMS 114 small cell lung, 2.57 µM; in the assay with OVCAR-3 ovarian, 2.58 µM; in the assay on CCRF-CEM leukemia, 0.556 µM; in the assay on EKVX NSCLC, 4.32 µM. Further, the TGI in the assay on KM20L2 colon was 10.3 µM; in the assay on SF-268 CNS, 15.4 µM; in the assay on DMS 114 small cell lung, above 100 µM; with OVCAR-3 ovarian, 6.53 µM; in the assay with CCRF-CEM leukemia, 3.44 µM; with EKVX NSCLC it was 8.99 µM.
Consider `[Cl-].[O-]/N=C(\c1ccccc1)c1ccccn1.[O-]/N=C(\c1ccccc1)c1ccccn1.[O-]/N=C(\c1ccccc1)c1ccccn1.[Sm+3]`, for which the GI50 with KM20L2 colon is 40.1 µM; with SF-268 CNS, 30 µM; with DMS 114 small cell lung, 23 µM; in the assay on OVCAR-3 ovarian, 18 µM; with CCRF-CEM leukemia, 26.6 µM; in the assay on EKVX NSCLC, 29.4 µM. The TGI is above 100 µM with KM20L2 colon; 87.3 µM in the assay on SF-268 CNS; 72 µM with DMS 114 small cell lung; 73.7 µM in the assay on OVCAR-3 ovarian; 98.8 µM with CCRF-CEM leukemia; above 100 µM in the assay with EKVX NSCLC.
Turning to `Cc1[nH]c2ccccc2c1C(=O)CC1(O)C(=O)Nc2ccccc21` (configuration not stated), the TGI with KM20L2 colon, in the assay on SF-268 CNS, with CCRF-CEM leukemia and with EKVX NSCLC was above 100 µM throughout.
For `Cc1ccc(SC(CCC(Sc2ccc(C)cc2)Sc2ccc(C)cc2)Sc2ccc(C)cc2)cc1`, the TGI with KM20L2 colon, in the assay on SF-268 CNS, in the assay with DMS 114 small cell lung, in the assay on OVCAR-3 ovarian, with CCRF-CEM leukemia and with EKVX NSCLC was above 100 µM each time.
Consider `C=C(COC(C)=O)CC(OC(C)=O)c1ccccc1` (configuration not stated), for which the TGI with KM20L2 colon, with SF-268 CNS, in the assay on DMS 114 small cell lung, with OVCAR-3 ovarian, with CCRF-CEM leukemia and in the assay on EKVX NSCLC was above 100 µM in each case.
`C=C1C(=O)O[C@H]2[C@H]1CC/C(COC(=O)CSCCSCC(=O)OC/C1=C/CC[C@@]3(C)O[C@H]3[C@H]3OC(=O)C(=C)[C@@H]3CC1)=C\CC[C@@]1(C)O[C@@H]21`: the GI50 with MCF7 breast is 0.832 µM; in the assay with SF-268 CNS, 1.71 µM; with MDA-MB-231 breast, 1.58 µM; in the assay with OVCAR-3 ovarian, 1.15 µM; with CCRF-CEM leukemia, 0.468 µM; in the assay on HS 578T breast, 4.65 µM. Moreover, the GI50 in the assay on EKVX NSCLC is 1.66 µM; in the assay with PC-3 prostate, 2.5 µM. Further, the TGI is 2.66 µM with MCF7 breast; 4.08 µM in the assay on SF-268 CNS; 3.14 µM in the assay on MDA-MB-231 breast; 2.44 µM in the assay on OVCAR-3 ovarian; 3.24 µM with CCRF-CEM leukemia; 38.9 µM in the assay on HS 578T breast. Moreover, the TGI in the assay on EKVX NSCLC is 3.7 µM; with PC-3 prostate, 8.33 µM.
With `Cc1cc(S(=O)(=O)Nc2nc3cscc3c(=O)n2Cc2ccccc2)c(S)cc1Cl`, the GI50 in the assay on MCF7 breast is 39.1 µM; with SF-268 CNS, 31 µM; in the assay on MDA-MB-231 breast it was 34 µM; in the assay with OVCAR-3 ovarian it was 32.2 µM; in the assay on CCRF-CEM leukemia, 14 µM; in the assay with HS 578T breast, 65.6 µM. The GI50 was 23.8 µM in the assay with EKVX NSCLC and 35.6 µM with PC-3 prostate. The TGI in the assay with MCF7 breast, in the assay on SF-268 CNS, in the assay on MDA-MB-231 breast, with OVCAR-3 ovarian, with CCRF-CEM leukemia and in the assay on HS 578T breast was above 100 µM in each case. Moreover, the TGI with EKVX NSCLC and in the assay on PC-3 prostate was above 100 µM each time.
For the compound `COC(=O)CCc1c[nH]c2ccc(N(CCCl)CCCl)cc12`, the GI50 in the assay with MCF7 breast is 0.572 µM; with SF-268 CNS, 1.25 µM; with MDA-MB-231 breast, 20.1 µM; with OVCAR-3 ovarian it was 8.05 µM; in the assay on CCRF-CEM leukemia it was 0.6 µM; in the assay with HS 578T breast it was 15.1 µM. In addition, the values for the GI50 with EKVX NSCLC and in the assay on PC-3 prostate were 21.8 µM and 8.65 µM, respectively. In addition, the TGI in the assay on MCF7 breast was 22.9 µM; with SF-268 CNS, 30 µM; in the assay on MDA-MB-231 breast, above 92.4 µM; in the assay on OVCAR-3 ovarian it was 49.6 µM; in the assay with CCRF-CEM leukemia, above 28.6 µM; with HS 578T breast it was 50.1 µM. Further, the TGI with EKVX NSCLC is above 77.7 µM; in the assay on PC-3 prostate it was above 73.4 µM.
In the case of `COC(=O)[C@@H](C)C[C@H](Cc1ccccc1)NC(=O)c1csc(CC[C@H](C(C)C)N(C)C(=O)[C@@H](NC(=O)[C@H]2CCCCN2C)C(C)C)n1`, the GI50 is 0.078 µM with MCF7 breast; 0.722 µM in the assay on SF-268 CNS; 0.318 µM with MDA-MB-231 breast; 0.108 µM in the assay with OVCAR-3 ovarian; 0.295 µM with CCRF-CEM leukemia; 0.761 µM in the assay with HS 578T breast. Also, the GI50 with EKVX NSCLC is 1.33 µM; in the assay with PC-3 prostate, 0.383 µM. In addition, the TGI in the assay with MCF7 breast is above 33.3 µM; with SF-268 CNS it was above 33.3 µM; in the assay on MDA-MB-231 breast, above 8.8 µM; in the assay with CCRF-CEM leukemia, above 33.3 µM; with HS 578T breast, 15.8 µM; in the assay with EKVX NSCLC it was above 33.3 µM. This compound returned a TGI with PC-3 prostate above 33.3 µM.

These data come from PubChem BioAssay (NCI).
